The C3SDB collision cross section collection

Columns and labels:
[1] = instrument: DT, stepped-field
[2] = instrument: DT, single field, calibrated with Agilent tune mix (Agilent)
[3] = instrument: DT, stepped-field; remark: listed apart in the source

Compound | collision cross section (N2) ([3]; [M+Na]+) | collision cross section (N2) ([3]; [M+H]+) | also measured
CCCCCCCCCCCCC=CC[C@@H](O)[C@H](COP(=O)([O-])OCC[N+](C)(C)C)NC(=O)CCCCCCCCCCCCCCCCCCCCCCC [SM(42:01)] | – | – | collision cross section (N2) ([1]; [M+Cl]-): 305.77 Å²; collision cross section (N2) ([1]; [M+HCOO]-): 306.96 Å²; collision cross section (N2) ([1]; [M+H]+): 303.17 Å²; collision cross section (N2) ([1]; [M+Na]+): 302.6 Å²
CCCCCCCCCCCCC=CC[C@@H](O)[C@H](CO[C@@H]1O[C@H](CO)[C@@H](O)C(O)C1O)NC(=O)CCCCCCCCCCCCCCCCCCCCCC (stereo partly specified) [GlcCer(41:01)] | – | – | collision cross section (N2) ([1]; [M+H-H2O]+): 294.63 Å²; collision cross section (N2) ([1]; [M+H]+): 297.12 Å²; collision cross section (N2) ([1]; [M+Na]+): 297.42 Å²
OC[C@H]1O[C@H](OC[C@H]2OC(O)[C@H](O)[C@@H](O)[C@@H]2O)[C@H](O)[C@@H](O)[C@H]1O (stereo partly specified) [Melibiose] | 181.14 Å² | – | collision cross section (N2) ([2]; [M+Na]+): 176.8 Å²
CCCCCCCCCCCCC=CC[C@@H](O)[C@H](CO[C@@H]1O[C@H](CO)[C@@H](O)C(O)C1O)NC(=O)CCCCCCCCCCCCCCCCCCCCCCCCC (stereo partly specified) [GlcCer(44:01)] | – | – | collision cross section (N2) ([1]; [M+H]+): 306.44 Å²; collision cross section (N2) ([1]; [M+Na]+): 307.93 Å²
CCCCCCCC/C=C\CCCCCCCC(=O)O[C@H](COC(=O)CCCCCCCCCCCCCCCCC)COP(=O)(O)O [PA(36:01)] | – | – | collision cross section (N2) ([1]; [M+2Na-H]+): 274.66 Å²; collision cross section (N2) ([1]; [M+Na]+): 273.4 Å²
C=CC1=C(C)C(/C=c2\[nH]/c(=C\c3[nH]c(/C=C4\NC(=O)C(C)=C4C=C)c(C)c3CCC(=O)O)c(CCC(=O)O)c2C)=NC1=O [Biliverdin] | 248.83 Å² | 246.5 Å² | collision cross section (N2) ([2]; [M+Na]+): 246.7 Å²; collision cross section (N2) ([2]; [M-H]-): 242.04 Å²
OC[C@@H](O)C(O)[C@@H](O)CO (stereo partly specified) [Xylitol] | 140.79 Å² | – | collision cross section (N2) ([2]; [M+Na]+): 135.3 Å²; collision cross section (N2) ([2]; [M-H]-): 122.4 Å²
CN1c2c([nH]c(N)nc2=O)NCC1CNc1ccc(C(=O)N[C@H](CCC(=O)O)C(=O)O)cc1 (stereo partly specified) [5-Methyltetrahydrofolate] | 200.04 Å² | 196.99 Å² | collision cross section (N2) ([2]; [M+H]+): 196.4 Å²; collision cross section (N2) ([2]; [M+Na-2H]-): 201.03 Å²
CCCCC[C@H](O)/C=C/[C@@H]1[C@H]2C/C(=C/CCCC(=O)O)O[C@H]2C[C@H]1O [Prostaglandin I2] | 196.67 Å² | 201.3 Å² | collision cross section (N2) ([2]; [M+H]+): 198.6 Å²; collision cross section (N2) ([2]; [M-H]-): 186.84 Å²
OC[C@H]1O[C@H](O[C@H]2[C@H](O)[C@@H](O)[C@H](O)O[C@@H]2CO)[C@H](O)[C@@H](O)[C@@H]1O [D-Maltose] | 179.19 Å² | – | collision cross section (N2) ([2]; [M+K-2H]-): 175.19 Å²; collision cross section (N2) ([2]; [M+Na]+): 178.1 Å²
Cn1c(=O)c2[nH]cnc2n(C)c1=O [Theophylline] | 149.63 Å² | 143.06 Å² | collision cross section (N2) ([2]; [M+H]+): 137.6 Å²; collision cross section (N2) ([2]; [M-H]-): 130.14 Å²
CN(CC(=O)O)/C(N)=N/P(=O)(O)O [Phosphocreatine] | – | 153.77 Å² | collision cross section (N2) ([2]; [M+H]+): 144.4 Å²
CCCCC[C@H](O)/C=C/[C@H]1CC2CC(C2)[C@@H]1C/C=C\CCCC(=O)O [Carbocyclic Thromboxane A2] | 203.6 Å² | – | –
CCCCCCCCCCCCCCCCCCC(=O)OCC(O)COP(=O)([O-])OCC[N+](C)(C)C (stereo unspecified) [LPC 19:0] | 244.1 Å² | – | –
N[C@@H]1C(O)O[C@H](CO)[C@@H](O)[C@@H]1O (stereo partly drawn) [D-Mannosamine] | 146.73 Å² | – | –
CCCCCCCCCCCCCCCCCCCCCCCC(=O)O [Lignoceric Acid] | 216.86 Å² | – | –

Compound | collision cross section (N2) ([3]; [M+Na]+) | collision cross section (N2) ([3]; [M+H]+) | also measured
CC(=O)NC1[C@H](OC2[C@@H](O)[C@H](OC([C@H](O)CO)[C@@H](O)[C@@H](O)C=O)O[C@H](COC3O[C@H](CO)[C@@H](O[C@@H]4O[C@H](CO)[C@H](O)[C@H](O)[C@H]4O)[C@H](O)[C@H]3NC(C)=O)[C@H]2O)O[C@H](CO)[C@@H](O)[C@@H]1OC1O[C@H](CO)[C@H](O)[C@H](O)[C@H]1O (stereo partly specified) [Lacto-N-hexaose] | 301.6 Å² | – | –
Nc1c(Cl)c(Cl)nc(C(=O)O)c1Cl [Picloram] | 156.37 Å² | 142.83 Å² | –
CC1(O)CCOC(=O)C1 (stereo unspecified) [Mevalonolactone] | 143.67 Å² | – | –
CC(=O)NCCCC(=O)O [4-Acetamidobutanoic Acid] | 138.57 Å² | – | –
C[C@@H]1OC(O)[C@@H](O)[C@H](O)[C@@H]1O (stereo partly drawn) [6-Deoxy-L-galactose] | 147.32 Å² | – | –
c1ccc2ccccc2c1 [Naphthalene] | – | 120.28 Å² | –
O=C(O)CNCP(=O)(O)O [Glyphosate] | 141.17 Å² | – | –
O=c1[nH]cc(CO)c(=O)[nH]1 [5-Hydroxymethyluracil] | 142.06 Å² | – | collision cross section (N2) ([2]; [M-H]-): 119.21 Å²
N[C@@H](Cc1ccccc1Cl)C(=O)O [2-Chloro-L-Phenylalanine] | – | 148.86 Å² | –
OC[C@H]1O[C@@H](O[C@H]2[C@H](O)[C@@H](O)[C@H](O[C@H]3[C@H](O)[C@@H](O)[C@H](O[C@H]4[C@H](O)[C@@H](O)[C@H](O[C@H]5[C@H](O)[C@@H](O)C(O)O[C@@H]5CO)O[C@@H]4CO)O[C@@H]3CO)O[C@@H]2CO)[C@H](O)[C@@H](O)[C@@H]1O (stereo partly specified) [Cellopentaose] | 251.04 Å² | – | –
CCCCC/C=C\C/C=C\CCCCCCCC(=O)OC [Methyl Linoleate] | – | 187.2 Å² | –
C=CCc1cc(OC)c2c(c1)OCO2 [Myristicin] | – | 141.69 Å² | –
CC(=O)N[C@@H](CCC(=O)O)C(=O)O [N-Acetyl-L-glutamate] | 149.63 Å² | 139.03 Å² | collision cross section (N2) ([2]; [M+Na-2H]-): 141 Å²
CCOCN(C(=O)CCl)c1c(C)cccc1CC [Acetochlor] | 174.6 Å² | 160.09 Å² | –
CCCCCC(=O)/C=C/C=C/CCCCCCCC(=O)O [13-OxoODE] | 193.37 Å² | 179.4 Å² | –
C=CC(C)(O)CCC=C(C)C (stereo unspecified) [Linalool] | 140.55 Å² | – | –

Further lines, with some results ahead:

collision cross section (N2) ([3]; [M+Na]+) | collision cross section (N2) ([3]; [M+H]+) | Compound | also measured
135.56 Å² | 121.6 Å² | C[N+](C)(C)CC(=O)[O-] [Betaine] | collision cross section (N2) ([2]; [M+H]+): 121.4 Å²
169.03 Å² | 186.73 Å² | CC(=O)[C@H]1CC[C@H]2[C@@H]3CCC4=CC(=O)CC[C@]4(C)[C@H]3CC[C@]12C [Progesterone] | collision cross section (N2) ([2]; [M+H]+): 181.2 Å²; collision cross section (N2) ([2]; [M-H]-): 182.13 Å²
204.09 Å² | 196.05 Å² | C[C@]12CCC(=O)C=C1CC[C@@H]1[C@@H]2[C@@H](O)C[C@]2(C=O)[C@@H](C(=O)CO)CC[C@@H]12 [Aldosterone] | collision cross section (N2) ([2]; [M+H]+): 187.7 Å²; collision cross section (N2) ([2]; [M-H]-): 181.09 Å²
164.45 Å² | 154.16 Å² | O=C(O)CCCC[C@@H]1SC[C@@H]2NC(=O)N[C@@H]21 [D-Biotin] | collision cross section (N2) ([2]; [M+H]+): 150.4 Å²; collision cross section (N2) ([2]; [M-H]-): 152.96 Å²
168.97 Å² | 157.51 Å² | Cc1cn([C@@H]2O[C@H](CO)[C@@H](O)[C@H]2O)c(=O)nc1N [5-Methylcytidine] | collision cross section (N2) ([2]; [M+H]+): 157.4 Å²; collision cross section (N2) ([2]; [M-H]-): 152.63 Å²
137.3 Å² | 129.32 Å² | NC(=O)c1cccnc1 [Nicotinamide] | collision cross section (N2) ([2]; [M+H]+): 125.3 Å²
– | 129.96 Å² | NCCCCN=C(N)N [Agmatine] | collision cross section (N2) ([2]; [M+H]+): 128.2 Å²
– | 134.37 Å² | Cn1cnc2c1c(=O)[nH]c(=O)n2C [Theobromine] | collision cross section (N2) ([2]; [M-H]-): 135.25 Å²
– | 161.3 Å² | Cc1cc(O)c2c(c1)C(=O)c1cc(O)cc(O)c1C2=O [Emodin] | –
145.91 Å² | – | OC[C@@H](O)[C@H](O)[C@H](O)[C@@H](O)CO [Galactitol] | –
– | 133.71 Å² | CN[C@@H](CCC(=O)O)C(=O)O [N-Methyl-L-glutamate] | –
262.43 Å² | – | CCCCCCCCCCCCCCCCCCCCCCCC(=O)OC[C@@H](O)COP(=O)([O-])OCC[N+](C)(C)C [LPC(24:0)] | –
– | 135.63 Å² | Cn1c(=O)[nH]c2ncn(C)c2c1=O [Paraxanthine] | –
160.36 Å² | – | CC(=O)N[C@H]1C(O)O[C@H](CO)[C@@H](O)[C@@H]1O (stereo partly drawn) [N-Acetyl-D-glucosamine] | collision cross section (N2) ([2]; [M+H]+): 147.3 Å²
137.7 Å² | – | C[C@@](O)(CCO)CC(=O)O [Mevalonic Acid] | –
– | 125.24 Å² | NCCc1ccc(O)c(O)c1 [Dopamine] | collision cross section (N2) ([2]; [M-H]-): 129.51 Å²
132.81 Å² | – | O=C(CO)[C@@H](O)[C@@H](O)CO [L-Ribulose] | –
131.94 Å² | 131.54 Å² | NC(=O)C[C@H](N)C(=O)O [L-Asparagine] | –
230.37 Å² | 216.1 Å² | CCCCCCCCCCCCCCCC(=O)OC(CC(=O)[O-])C[N+](C)(C)C (stereo unspecified) [Palmitoylcarnitine] | –
141.82 Å² | – | OC[C@H]1OC(O)[C@@H](O)[C@@H](O)[C@@H]1O (stereo partly drawn) [D-Mannose] | collision cross section (N2) ([2]; [M+Na]+): 140.8 Å²
